The record followed here is ChEMBL document CHEMBL1146302, “Highly constrained bicyclic VLA-4 antagonists” (Bioorg Med Chem Lett, 2007).

The source made the active and inactive calls.

Data set [1] deals with T1, Integrin alpha-4/beta-1 (Homo sapiens, UniProt P05556+P13612). The data set is described as follows: Binding affinity to human VLA4 alpha4beta1 in Jurkat cells. The class given is cell-based.
In data set [2] the target is T1, Integrin alpha-4/beta-1. As to the kind of experiment: Displacement of [125I]VCAM-Ig from human VLA4 alpha-4-beta-1 in Jurkat cells at 100 uM. The class given is cell-based. Background: Displacement assays read how much labelled ligand stays bound in the presence of the test substance.
Data set [3] has as its target T2, Integrin alpha-4/beta-7 (Homo sapiens, UniProt P13612+P26010).
T2 sequence (P13612 whole entry): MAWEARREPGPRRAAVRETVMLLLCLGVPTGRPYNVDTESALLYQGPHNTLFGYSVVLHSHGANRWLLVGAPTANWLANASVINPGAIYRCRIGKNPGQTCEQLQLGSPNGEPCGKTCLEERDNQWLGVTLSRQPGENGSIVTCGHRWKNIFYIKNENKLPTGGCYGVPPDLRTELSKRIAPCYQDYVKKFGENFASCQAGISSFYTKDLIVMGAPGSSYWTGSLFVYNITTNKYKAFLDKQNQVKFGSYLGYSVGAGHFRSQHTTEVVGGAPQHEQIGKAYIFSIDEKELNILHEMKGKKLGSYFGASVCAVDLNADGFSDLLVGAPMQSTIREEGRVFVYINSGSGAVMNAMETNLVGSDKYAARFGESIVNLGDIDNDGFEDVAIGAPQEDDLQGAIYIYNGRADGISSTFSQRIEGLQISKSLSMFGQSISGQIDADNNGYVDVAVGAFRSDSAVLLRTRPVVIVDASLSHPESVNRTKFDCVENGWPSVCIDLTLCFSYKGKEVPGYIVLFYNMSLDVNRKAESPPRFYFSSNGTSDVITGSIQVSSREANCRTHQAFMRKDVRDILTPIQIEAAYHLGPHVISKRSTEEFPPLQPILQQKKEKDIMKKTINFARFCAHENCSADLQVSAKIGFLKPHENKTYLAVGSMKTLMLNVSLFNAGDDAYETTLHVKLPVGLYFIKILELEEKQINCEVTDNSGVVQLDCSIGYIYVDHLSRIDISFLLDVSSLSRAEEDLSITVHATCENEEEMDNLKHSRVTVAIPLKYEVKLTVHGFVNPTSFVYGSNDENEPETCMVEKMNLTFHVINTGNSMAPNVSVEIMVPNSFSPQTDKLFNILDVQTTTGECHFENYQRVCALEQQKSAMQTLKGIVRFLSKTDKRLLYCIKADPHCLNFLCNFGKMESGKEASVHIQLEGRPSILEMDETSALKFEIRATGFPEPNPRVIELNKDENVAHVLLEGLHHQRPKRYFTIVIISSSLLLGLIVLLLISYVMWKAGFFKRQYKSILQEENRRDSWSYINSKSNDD
T2 sequence (P26010 whole entry): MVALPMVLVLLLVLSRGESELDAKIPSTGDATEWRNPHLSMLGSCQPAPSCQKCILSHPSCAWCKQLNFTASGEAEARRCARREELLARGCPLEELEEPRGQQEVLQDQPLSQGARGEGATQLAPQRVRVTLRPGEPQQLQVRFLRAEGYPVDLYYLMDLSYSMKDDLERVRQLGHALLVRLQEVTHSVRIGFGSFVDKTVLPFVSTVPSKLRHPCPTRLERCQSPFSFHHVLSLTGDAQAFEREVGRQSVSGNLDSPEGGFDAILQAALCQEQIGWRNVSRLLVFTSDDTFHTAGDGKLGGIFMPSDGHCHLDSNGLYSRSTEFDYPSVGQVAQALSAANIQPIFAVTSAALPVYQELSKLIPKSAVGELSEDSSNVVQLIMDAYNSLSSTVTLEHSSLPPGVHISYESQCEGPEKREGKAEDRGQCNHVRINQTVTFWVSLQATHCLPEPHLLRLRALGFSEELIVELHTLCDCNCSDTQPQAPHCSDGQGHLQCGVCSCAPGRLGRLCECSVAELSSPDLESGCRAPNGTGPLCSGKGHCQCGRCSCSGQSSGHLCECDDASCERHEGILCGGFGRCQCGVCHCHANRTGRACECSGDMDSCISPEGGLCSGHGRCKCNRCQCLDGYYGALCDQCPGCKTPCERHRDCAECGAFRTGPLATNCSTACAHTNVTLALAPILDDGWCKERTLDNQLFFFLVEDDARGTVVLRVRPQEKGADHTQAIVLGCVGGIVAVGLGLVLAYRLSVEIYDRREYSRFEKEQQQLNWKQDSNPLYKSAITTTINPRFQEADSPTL
As to the kind of experiment: Binding affinity to human integrin alpha-4-beta-7 in Jurkat cells. It counts as cell-based.

Data set [4] is described as follows: Clearance in Sprague-Dawley rat plasma at 1 mg/kg, iv by cassette-dosing assay. It counts as ADME, organism-based. Details: dose 1 mg/kg, route intravenous.
Data set [5] in a line: Half life in Sprague-Dawley rat plasma at 1 mg/kg, iv by cassette-dosing assay. It counts as ADME, organism-based. Details: dose 1 mg/kg, route intravenous.
Data set [6] can be described thus: Half life in Sprague-Dawley rat plasma at 2 mg/kg, po by cassette-dosing assay. Details: dose 2 mg/kg, route oral. The class given is ADME, organism-based.
The nature of data set [7]: Bioavailability in Sprague-Dawley rat at 2 mg/kg, po by cassette-dosing assay. The class given is ADME, organism-based. As to conditions: in vivo.

T1 sequence (P05556 whole entry, one chain of several): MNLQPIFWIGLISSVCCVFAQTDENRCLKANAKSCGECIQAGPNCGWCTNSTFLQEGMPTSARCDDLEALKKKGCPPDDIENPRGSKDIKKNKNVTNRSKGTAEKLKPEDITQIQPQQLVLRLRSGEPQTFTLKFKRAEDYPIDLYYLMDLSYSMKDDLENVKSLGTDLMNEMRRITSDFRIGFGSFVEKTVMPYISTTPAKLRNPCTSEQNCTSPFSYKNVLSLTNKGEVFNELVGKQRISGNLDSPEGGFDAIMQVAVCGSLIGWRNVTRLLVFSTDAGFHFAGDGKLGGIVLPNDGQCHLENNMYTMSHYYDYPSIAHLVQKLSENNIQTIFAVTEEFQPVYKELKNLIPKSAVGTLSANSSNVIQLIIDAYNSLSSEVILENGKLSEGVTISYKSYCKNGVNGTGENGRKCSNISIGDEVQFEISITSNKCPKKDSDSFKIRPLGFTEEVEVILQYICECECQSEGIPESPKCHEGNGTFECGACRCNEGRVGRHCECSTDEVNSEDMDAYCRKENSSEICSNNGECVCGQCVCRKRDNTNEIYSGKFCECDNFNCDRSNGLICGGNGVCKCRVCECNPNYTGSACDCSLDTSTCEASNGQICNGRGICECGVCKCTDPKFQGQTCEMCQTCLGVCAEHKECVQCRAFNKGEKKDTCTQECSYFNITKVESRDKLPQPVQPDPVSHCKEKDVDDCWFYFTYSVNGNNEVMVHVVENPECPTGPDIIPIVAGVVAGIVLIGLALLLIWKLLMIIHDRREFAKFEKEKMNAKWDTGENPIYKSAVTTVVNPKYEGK

For orientation: IC50 means the concentration at which inhibition is half-maximal. A higher IC50 goes with weaker potency in that assay. In data set [1], `O=C(O)C1C2C=CC(C2)[C@@H]1NC(=O)[C@@H]1CCCN1S(=O)(=O)c1cc(Cl)cc(Cl)c1` (stereo partly drawn) [listing 1 of 2 here] returned a 50% inhibitory concentration (IC50) of 2.16 µM.

With `O=C(O)C1C2CCC(C2)[C@H]1NC(=O)[C@@H]1CCCN1S(=O)(=O)c1cc(Cl)cc(Cl)c1` (stereo partly drawn) [listing 1 of 2 here], the IC50 in data set [1] came out at 0.299 µM.

In data set [1], `O=C(O)[C@H]1CCCC[C@@H]1NC(=O)[C@@H]1CCCN1S(=O)(=O)c1cc(Cl)cc(Cl)c1` yielded an IC50 of 0.525 µM.

`O=C(O)Cc1ccccc1NC(=O)[C@@H]1CCCN1S(=O)(=O)c1cc(Cl)cc(Cl)c1`: the Activity in data set [2] is 11%.

`O=C(O)[C@H]1C2CCC(CC2)[C@@H]1NC(=O)[C@@H]1CCCN1S(=O)(=O)c1cc(Cl)cc(Cl)c1`: the IC50 in data set [1] is 2.74 µM.

In data set [2], `O=C(O)c1ccccc1NC(=O)[C@@H]1CCCN1S(=O)(=O)c1cc(Cl)cc(Cl)c1` registered an Activity of 0%.

Usually clearance stands for the rate of elimination divided by the concentration. The low end stands for inefficient removal, the high end for efficient removal. One may read the half-life as the time needed for the level to fall by half in the phase considered. A low value points to fast loss. In general, bioavailability refers to dose-corrected exposure relative to a reference, in per cent. High values mean good availability, low ones poor availability. On to `O=C(O)[C@H]1C2CCC(C2)[C@@H]1NC(=O)[C@@H]1CCCN1S(=O)(=O)c1cc(Cl)cc(Cl)c1` (stereo partly drawn), for which the IC50 in data set [1] stood at 0.054 µM; in data set [3], 13 µM. Also, the clearance in data set [4] came out at 0.198 L/h/kg. The half-life in data set [5] was 1.9 h; in data set [6], 1.7 h. Further, the bioavailability in data set [7] stood at 49%.

`O=C(O)Cc1cccc(NC(=O)[C@@H]2CCCN2S(=O)(=O)c2cc(Cl)cc(Cl)c2)c1` yielded an Activity in data set [2] of 43%.

Compound `O=C(O)C1C2CCC(C2)[C@@H]1NC(=O)[C@@H]1CCCN1S(=O)(=O)c1cc(Cl)cc(Cl)c1` (stereo partly drawn) [listing 1 of 2 here] returned an IC50 in data set [1] of 0.095 µM.

For the compound `O=C(O)C1C2C=CC(C2)[C@@H]1NC(=O)[C@@H]1CCCN1S(=O)(=O)c1cc(Cl)cc(Cl)c1` (stereo partly drawn) [listing 2 of 2 here], the IC50 in data set [1] was found to be 0.657 µM.

Regarding `O=C(O)C1C2CCC(C2)[C@@H]1NC(=O)[C@@H]1CCCN1S(=O)(=O)c1cc(Cl)cc(Cl)c1` (stereo partly drawn) [listing 2 of 2 here], in data set [1], the concentration for half-maximal inhibition (IC50) turned out to be 0.322 µM.

`O=C(O)[C@@H]1C2CCC(C2)[C@@H]1NC(=O)[C@@H]1CCCN1S(=O)(=O)c1cc(Cl)cc(Cl)c1` (stereo partly drawn): the IC50 in data set [1] came out at 1.6 µM.

Consider `O=C(O)[C@H]1CCCC[C@H]1NC(=O)[C@@H]1CCCN1S(=O)(=O)c1cc(Cl)cc(Cl)c1`, for which the IC50 in data set [1] was 9.46 µM.

For `O=C(CN(C1CCCCC1)S(=O)(=O)c1cc(Cl)cc(Cl)c1)NC1CCCCC1C(=O)O` (stereo not drawn), the outcome in data set [2] was inactive.

Consider `O=C(O)C1C2CCC(C2)[C@H]1NC(=O)[C@@H]1CCCN1S(=O)(=O)c1cc(Cl)cc(Cl)c1` (stereo partly drawn) [listing 2 of 2 here], for which the IC50 in data set [1] was 1.49 µM.

In data set [1], `CC(C)[C@@H](C(=O)NC1CCCCC1C(=O)O)N(C)S(=O)(=O)c1cc(Cl)cc(Cl)c1` (stereo partly drawn) came in with an IC50 of 0.462 µM.

Turning to `O=C(O)c1cccc(NC(=O)[C@@H]2CCCN2S(=O)(=O)c2cc(Cl)cc(Cl)c2)c1`, the Activity in data set [2] was 2%.

Compound `O=C(O)[C@H]1C2CCC(O2)[C@@H]1NC(=O)[C@@H]1CCCN1S(=O)(=O)c1cc(Cl)cc(Cl)c1` (stereo partly drawn) came in with a half-maximal inhibitory concentration (IC50) in data set [1] of 25.6 µM.
